Results as given in patent publication US20050112615A1, “Genetic circuit inverting amplifier” (priority 2003, published 2005).

System: E.coli strain DH5αZ1 transformed with input pBT plasmid and amplifier plasmid pAMP-1
Test: Output EGFP fluorescence of genetic circuit amplifier as a function of input IPTG concentration
Format: cell-based
Conditions: 3 hours growth, corrected for cell density and background fluorescence
Description: A second bacterial plasmid, pBT (Stratagene, CA), was selected to produce the input. It releases monomer into the cellular environment, making CI available for the engineered circuit to use. It is a simple plasmid that controls transcription of cI with the PlacUV promoter. […] The pBT vector has an origin of replication derived from p15A, making it compatible with the circuit plasmid which has a different ColE1 origin of replication. Together, the plasmids constitute a cis-trans network, since the product of one plasmid (pBT) affects the outcome of gene expression on the second plasmid (pAMP-1).
The input pBT plasmid and the amplifier plasmid pAMP-1 gene were transformed into chemically competent E.coli strain DH5αZ1. This strain was selected because it produces LacI in abundance so as to permit effective use of pBT. Transformed cells were grown overnight at 37° C. in LB broth. Chloramphenicol was added at a concentration of 50 μg/mL and ampicillin was added at a concentration of 100 μg/mL.
The overnight culture was diluted 1:50 into fresh LB medium containing IPTG at the following concentrations: 0-20-200-2000 μM. These cells were allowed to grow for another 3 hours. The cells were then spun down and re-suspended in PBS. Fluorescence was then measured on a BMG Optima microplate fluorometer equipped with filters for GFP. Absorbance at 600 nm was also measured. Fluorescence was the corrected for cell density and background fluorescence. The result, presented in Table 1, indicates an output that decreases with increasing input. Observed non-linearity is likely due to low gain of chosen gain element.

Structure (SMILES): CC(C)S[C@@H]1O[C@H](CO)[C@H](O)[C@H](O)[C@H]1O [IPTG, isopropyl-β-D-thiogalactopyranoside]
- EGFP output fluorescence (IPTG 20 uM): 66263 arbitrary units
- EGFP output fluorescence (IPTG 200 uM): 58338 arbitrary units
- EGFP output fluorescence (IPTG 2000 uM): 44137 arbitrary units
